Assay results: PubChem BioAssay (NCI)
≈ marks a conversion by molar mass, not a printed value. Where “and” joins values, the source holds several entries; their conditions need not be identical. Identical values can stand only once.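 Cells were grown in 96-well plates and exposed to each compound for 48 hours at five concentrations; endpoints were interpolated linearly between bracketing concentrations, or set to the highest concentration if not reached. GI50 marks 50% less growth. TGI is the concentration that stops growth completely.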

What was measured:
Experiment in all cases: DTP human tumour cell line panel, 48 h
HT29 colon = system: HT29 colon
SF-295 CNS = system: SF-295 CNS
COLO 205 colon = system: COLO 205 colon
NCI-H23 lung = system: NCI-H23 lung
TK-10 renal = system: TK-10 renal
SK-MEL-5 melanoma = system: SK-MEL-5 melanoma
NCI/ADR-RES ovarian = system: NCI/ADR-RES ovarian
SN12C renal = system: SN12C renal
SK-MEL-2 melanoma = system: SK-MEL-2 melanoma
DU-145 prostate = system: DU-145 prostate
SF-539 CNS = system: SF-539 CNS
786-0 renal = system: 786-0 renal
MDA-MB-435 = system: MDA-MB-435
NCI-H226 lung = system: NCI-H226 lung
RPMI-8226 leukemia = system: RPMI-8226 leukemia
HCC-2998 colon = system: HCC-2998 colon
PC-3 prostate = system: PC-3 prostate
K-562 leukemia = system: K-562 leukemia
U251 CNS = system: U251 CNS
OVCAR-8 ovarian = system: OVCAR-8 ovarian
ACHN renal = system: ACHN renal
LOX IMVI melanoma = system: LOX IMVI melanoma
SK-MEL-28 melanoma = system: SK-MEL-28 melanoma
IGROV1 ovarian = system: IGROV1 ovarian
MOLT-4 leukemia = system: MOLT-4 leukemia
SW-620 colon = system: SW-620 colon
HCT-116 colon = system: HCT-116 colon
UACC-62 melanoma = system: UACC-62 melanoma
EKVX NSCLC = system: EKVX NSCLC
KM12 colon = system: KM12 colon
RXF 393 renal = system: RXF 393 renal
CAKI-1 renal = system: CAKI-1 renal
MDA-N = system: MDA-N
UO-31 renal = system: UO-31 renal
CCRF-CEM leukemia = system: CCRF-CEM leukemia
T-47D breast = system: T-47D breast
OVCAR-3 ovarian = system: OVCAR-3 ovarian
A498 renal = system: A498 renal
HOP-92 NSCLC = system: HOP-92 NSCLC
M14 melanoma = system: M14 melanoma
HS 578T breast = system: HS 578T breast
SK-OV-3 ovarian = system: SK-OV-3 ovarian
MCF7 breast = system: MCF7 breast
HCT-15 colon = system: HCT-15 colon
UACC-257 melanoma = system: UACC-257 melanoma
NCI-H522 lung = system: NCI-H522 lung
SNB-19 CNS = system: SNB-19 CNS
OVCAR-5 ovarian = system: OVCAR-5 ovarian
HL-60(TB) leukemia = system: HL-60(TB) leukemia
OVCAR-4 ovarian = system: OVCAR-4 ovarian
MDA-MB-231 breast = system: MDA-MB-231 breast
HOP-62 NSCLC = system: HOP-62 NSCLC
SNB-75 CNS = system: SNB-75 CNS

Work on CCC(C)(CC(C)(C)C(=O)NCC(=O)NC(Cc1ccccc1)C(=O)NC(Cc1ccccc1)C(=O)NCC(=O)NC1CC(OC2CC(O)(C(=O)CO)Cc3c(O)c4c(c(O)c32)C(=O)c2c(OC)cccc2C4=O)OC(C)C1O)C(=O)NCC(C)O (stereo not given) yielded a GI50 (HT29 colon) of 91.9 µg/mL (≈ 77 µM), a TGI (HT29 colon) greater than 150 µg/mL and a GI50 (SF-295 CNS) of 75.9 µg/mL (≈ 63.6 µM). It also gave a TGI (SF-295 CNS) greater than 150 µg/mL, a GI50 (COLO 205 colon) of 102 µg/mL (≈ 85.3 µM) and a TGI (COLO 205 colon) greater than 150 µg/mL. The GI50 (NCI-H23 lung) was 72.9 µg/mL (≈ 61.1 µM), the TGI (NCI-H23 lung) was greater than 150 µg/mL and the GI50 (TK-10 renal) was greater than 150 µg/mL. The TGI (TK-10 renal) was greater than 150 µg/mL, the GI50 (SK-MEL-5 melanoma) was 28.8 µg/mL (≈ 24.1 µM) and the TGI (SK-MEL-5 melanoma) was 148 µg/mL (≈ 124 µM). For the same compound, the GI50 (NCI/ADR-RES ovarian) was greater than 150 µg/mL, the TGI (NCI/ADR-RES ovarian) was greater than 150 µg/mL and the GI50 (SN12C renal) was 81.2 µg/mL (≈ 68.1 µM). For the same compound, the TGI (SN12C renal) was greater than 150 µg/mL, the GI50 (SK-MEL-2 melanoma) was 127 µg/mL (≈ 107 µM) and the TGI (SK-MEL-2 melanoma) was greater than 150 µg/mL. It also gave a GI50 (DU-145 prostate) of 121 µg/mL (≈ 101 µM), a TGI (DU-145 prostate) greater than 150 µg/mL and a GI50 (SF-539 CNS) of 53 µg/mL (≈ 44.4 µM). It also gave a TGI (SF-539 CNS) greater than 150 µg/mL, a GI50 (786-0 renal) of 54.3 µg/mL (≈ 45.5 µM) and a TGI (786-0 renal) greater than 150 µg/mL. For the same compound, the GI50 (MDA-MB-435) was greater than 150 µg/mL, the TGI (MDA-MB-435) was greater than 150 µg/mL and the GI50 (NCI-H226 lung) was 41.4 µg/mL (≈ 34.7 µM). For the same compound, the TGI (NCI-H226 lung) was greater than 150 µg/mL, the GI50 (RPMI-8226 leukemia) was 36 µg/mL (≈ 30.2 µM) and the TGI (RPMI-8226 leukemia) was greater than 150 µg/mL. For the same compound, the GI50 (HCC-2998 colon) was 116 µg/mL (≈ 97.4 µM), the TGI (HCC-2998 colon) was greater than 150 µg/mL and the GI50 (PC-3 prostate) was greater than 150 µg/mL. The TGI (PC-3 prostate) was greater than 150 µg/mL, the GI50 (K-562 leukemia) was 86.3 µg/mL (≈ 72.4 µM) and the TGI (K-562 leukemia) was greater than 150 µg/mL. For the same compound, the GI50 (U251 CNS) was 51.2 µg/mL (≈ 42.9 µM), the TGI (U251 CNS) was greater than 150 µg/mL and the GI50 (OVCAR-8 ovarian) was 138 µg/mL (≈ 116 µM). It also gave a TGI (OVCAR-8 ovarian) greater than 150 µg/mL, a GI50 (ACHN renal) of 73.9 µg/mL (≈ 61.9 µM) and a TGI (ACHN renal) greater than 150 µg/mL. For the same compound, the GI50 (LOX IMVI melanoma) was 35.2 µg/mL (≈ 29.5 µM), the TGI (LOX IMVI melanoma) was greater than 150 µg/mL and the GI50 (SK-MEL-28 melanoma) was greater than 150 µg/mL. For the same compound, the TGI (SK-MEL-28 melanoma) was greater than 150 µg/mL, the GI50 (IGROV1 ovarian) was 41.7 µg/mL (≈ 34.9 µM) and the TGI (IGROV1 ovarian) was greater than 150 µg/mL. The GI50 (MOLT-4 leukemia) was 7.84 µg/mL (≈ 6.57 µM), the TGI (MOLT-4 leukemia) was 96.6 µg/mL (≈ 81 µM) and the GI50 (SW-620 colon) was 131 µg/mL (≈ 109 µM). The TGI (SW-620 colon) was greater than 150 µg/mL, the GI50 (HCT-116 colon) was 55.3 µg/mL (≈ 46.4 µM) and the TGI (HCT-116 colon) was greater than 150 µg/mL. The GI50 (UACC-62 melanoma) was 75 µg/mL (≈ 62.8 µM), the TGI (UACC-62 melanoma) was greater than 150 µg/mL and the GI50 (EKVX NSCLC) was greater than 150 µg/mL. The TGI (EKVX NSCLC) was greater than 150 µg/mL, the GI50 (KM12 colon) was 66.3 µg/mL (≈ 55.5 µM) and the TGI (KM12 colon) was greater than 150 µg/mL. For the same compound, the GI50 (RXF 393 renal) was greater than 150 µg/mL, the TGI (RXF 393 renal) was greater than 150 µg/mL and the GI50 (CAKI-1 renal) was 90.9 µg/mL (≈ 76.2 µM). It also gave a TGI (CAKI-1 renal) greater than 150 µg/mL, a GI50 (MDA-N) of 120 µg/mL (≈ 100 µM) and a TGI (MDA-N) greater than 150 µg/mL. For the same compound, the GI50 (UO-31 renal) was greater than 150 µg/mL, the TGI (UO-31 renal) was greater than 150 µg/mL and the GI50 (CCRF-CEM leukemia) was 3.35 µg/mL and 98.9 µg/mL. It also gave a TGI (CCRF-CEM leukemia) greater than 150 µg/mL, a GI50 (T-47D breast) of 70.3 µg/mL (≈ 58.9 µM) and a TGI (T-47D breast) greater than 150 µg/mL. It also gave a GI50 (OVCAR-3 ovarian) greater than 150 µg/mL, a TGI (OVCAR-3 ovarian) greater than 150 µg/mL and a GI50 (A498 renal) greater than 150 µg/mL. For the same compound, the TGI (A498 renal) was greater than 150 µg/mL, the GI50 (HOP-92 NSCLC) was greater than 150 µg/mL and the TGI (HOP-92 NSCLC) was greater than 150 µg/mL. The GI50 (M14 melanoma) was 120 µg/mL (≈ 100 µM), the TGI (M14 melanoma) was greater than 150 µg/mL and the GI50 (HS 578T breast) was greater than 150 µg/mL. The TGI (HS 578T breast) was greater than 150 µg/mL, the GI50 (SK-OV-3 ovarian) was greater than 150 µg/mL and the TGI (SK-OV-3 ovarian) was greater than 150 µg/mL. It also gave a GI50 (MCF7 breast) of 22 µg/mL (≈ 18.5 µM), a TGI (MCF7 breast) greater than 150 µg/mL and a GI50 (HCT-15 colon) of 1.5 µg/mL (≈ 1.26 µM). It also gave a TGI (HCT-15 colon) of 1.5 µg/mL (≈ 1.26 µM), a GI50 (UACC-257 melanoma) greater than 150 µg/mL and a TGI (UACC-257 melanoma) greater than 150 µg/mL. For the same compound, the GI50 (NCI-H522 lung) was 45.5 µg/mL (≈ 38.2 µM), the TGI (NCI-H522 lung) was greater than 150 µg/mL and the GI50 (SNB-19 CNS) was 69.2 µg/mL (≈ 58 µM). For the same compound, the TGI (SNB-19 CNS) was greater than 150 µg/mL, the GI50 (OVCAR-5 ovarian) was greater than 150 µg/mL and the TGI (OVCAR-5 ovarian) was greater than 150 µg/mL. The GI50 (HL-60(TB) leukemia) was 1.32 µg/mL and 62.8 µg/mL, the GI50 (OVCAR-4 ovarian) was greater than 150 µg/mL and the TGI (OVCAR-4 ovarian) was greater than 150 µg/mL. It also gave a GI50 (MDA-MB-231 breast) of 119 µg/mL (≈ 99.9 µM), a TGI (MDA-MB-231 breast) greater than 150 µg/mL and a GI50 (HOP-62 NSCLC) of 63.7 µg/mL (≈ 53.4 µM). For the same compound, the TGI (HOP-62 NSCLC) was greater than 150 µg/mL, the GI50 (SNB-75 CNS) was 16.1 µg/mL (≈ 13.5 µM) and the TGI (SNB-75 CNS) was greater than 150 µg/mL.
